# Measured values reported in patent US7629458B2, “Preparation of levofloxacin and hemihydrate thereof” (Teva Pharmaceutical Industries Ltd., priority 2001, dated 2009).
# Legend:
# [1] = Storage of crystal forms in a closed or open bottle at RT, conversion to hemihydrate by absorption of atmospheric water; format: physicochemical; details: sample kept in an open bottle
# Text: Another embodiment of the invention is a method for preparing a levofloxacin hemihydrate comprising storing one or more forms selected from the group consisting of Forms A, B, C, F, G, and H for an amount of time sufficient for the one or more forms to convert to a levofloxacin hemihydrate by the absorption of atomospheric water. For example, Forms A, B, C, F, G and H were converted to hemihydrate after 7-29 days of storing in a closed bottle at RT. The conversion to hemihydrate was faster (about 24 h) when keeping the sample in an open bottle.
# [2] = Exposure of wet material to the air at RT covered with paper, polymorph of the sample; format: physicochemical
# Experimental: The wet material was exposed to the air at RT covered with paper (for protection).
# A first portion of the wet material was stirred in 5 v of acetonitrile at 75° C. for 2 h, then filtrated under vacuum. The polymorphism of the wet sample was Hemihydrate. A second portion of the wet material was exposed to the air at RT covered with paper (for protection).
# After a few hours the polymorph of the wet samples was Hemihydrate.
# [3] = ordinary relative humidity conditions; cited from earlier work
compound,measurement,setting,value
"C[C@H]1COc2c(N3CCN(C)CC3)c(F)cc3c(=O)c(C(=O)O)cn1c23 [Form A, levofloxacin]",time of conversion to hemihydrate,[1],about 24 h
"C[C@H]1COc2c(N3CCN(C)CC3)c(F)cc3c(=O)c(C(=O)O)cn1c23 [Form H, levofloxacin]",polymorph of the wet sample after exposure to the air,"[2]; after 3, 6, 9 hours (Example 12)",Form G
same,polymorph of the wet sample after exposure to the air,[2]; after 24 hours (Example 12),hemihydrate polymorph
same,polymorph of the wet sample after exposure to the air,[2]; after a few hours (Example 13),Hemihydrate
"C[C@H]1COc2c(N3CCN(C)CC3)c(F)cc3c(=O)c(C(=O)O)cn1c23 [Form γ, levofloxacin]",form obtained after rapid adsorption of water vapor,[3],hemihydrate
"C[C@H]1COc2c(N3CCN(C)CC3)c(F)cc3c(=O)c(C(=O)O)cn1c23 [form α, levofloxacin]",form obtained after rapid adsorption of water vapor,[3],monohydrate
